# Data as given in patent US20250151740A1, “COMPOSITION FOR PREVENTING FUNGAL SPOILAGE IN POST-HARVEST FRUITS, VEGETABLES AND FLOWERS, METHOD AND USE THEREOF” (BIOBAB R&D, S.L., priority 2022, published 2025).
# Entries after “also recorded” stand apart in the source; their conditions may differ.
# Columns and labels:
# roses = assay: In vivo test on roses with controlled release diffuser; conditions: diffuser with 50 μL, 20° C., darkness, approx. 7 days, versus control
# Method: Roses were brought directly from local market and sent to laboratory within 12 hours. The roses were divided into two equal groups and each group of roses was placed in a jar filled with tap water.
# (§1) One group of roses were not exposed to any product (control) and another group of roses were exposed to a controlled release diffuser that contains the composition of the present invention. The controlled release diffuser was prepared using cellulose sheets (0.2 cm thick) in pieces (2×1 cm) and impregnated with 50 μL of pure β-cyclocitral (β-CC). These sheets were inserted into polyethylene bags (3×3 cm) that were subsequently heat-sealed.
# The diffuser was place in the middle of jar from 20 cm to the surface of the petals. The two jars were covered with a plastic bag to keep inside a homogeneous atmosphere. jars were kept in an acclimated chamber (20° C., darkness) until the symptoms of fungi degradation (approx. 7 days).
# cherries = assay: In vivo test on cherries with controlled release diffuser; conditions: diffuser with 50 μl, 20° C., darkness, 6 days; control approximately 23%
# Method: Mature cherries were brought directly from Spanish farm and sent to laboratory within 24 hours. The cherries were divided into two equal groups and each group of cherries was placed in a plate.
# as §1, with “cherries” for “roses”, “μl” for “μL”
# The diffuser was placed in the bottom of one plate. The two plates were covered with a plastic bag to keep inside a homogeneous atmosphere. Boxes were kept in an acclimated chamber (20° C., darkness) for 6 days.
# Finally, the cherries (control and exposed to the composition) were separate into two groups: fruits able to consume (not sign of fungi) and fruits not able to consume (signs of fungi).
# Monilinia sp. = assay: Compartment PDA plate, β-CC and eucalyptol on cellulose, mycelium growth inhibition; assay type: cell-based; conditions: 25 μl of the single substance, 27° C., 3-5 days
# Method: (§2) The fungi grown on strawberries was isolated and cultured on potato dextrose agar (PDA, Condalab, Madrid Spain) The fungus was identified as Monilinia sp.
# (§3) Fungal spores were then inoculated in the center of the compartment with PDA (40 mm diameter) and a small piece of cellulose with different volume of β-cyclocitral (β-CC) (composition of the present invention) and Eucalyptol was placed in one of the empty compartments. The plates were incubated at 27° C. for 3-5 days and the growth area of the mycelium and % of inhibition was measured.
# Taphrina deformans = assay: Vapor-agar contact method (modified, three-compartment petri dish); assay type: cell-based; conditions: 50 μL, 27° C., 3-5 days
# Method: (§4) Inhibitory effects on the spore germination of other filamentous fungi, specifically Phytophtera nicotiana, Taphrina deformans, Colletotrichum and Rhizopus sp., were examined by the vapor-agar contact method described in example 1 with a slight modification as follows. Fungi were cultured on potato dextrose agar (PDA) medium at 27° C. for a week. It was used petri dish with three compartment, one compartment was filled out with PDA and another two was kept empty,
# as §3, with “50 μL” for “different volume”, “invention)” for “invention) and Eucalyptol”
# Phytophtera nicotiana = assay: as above; assay type: cell-based; conditions: 50 μL; stated in text for all fungi of the example
# Method: as §4
# as §3, with “50 μL” for “different volume”, “invention)” for “invention) and Eucalyptol”
# Colletotrichum = assay: as above; assay type: cell-based; conditions: 50 μL, 27° C., 3-5 days
# Method: as §4
# as §3, with “50 μL” for “different volume”, “invention)” for “invention) and Eucalyptol”
# Rhizopus sp. = assay: as above; assay type: cell-based; conditions: 50 μL
# Method: as §4
# as §3, with “50 μL” for “different volume”, “invention)” for “invention) and Eucalyptol”
# strawberries = assay: In vivo test on strawberries with controlled release diffuser; conditions: diffuser with 50 μL, 20° C., darkness, approx. 7 days, versus control; listed as composition of the present invention
# Method: Mature strawberries were brought directly from local market and sent to laboratory within 2 hours. The strawberries were divided into two equal groups and each group of strawberries was placed in a box.
# as §1, with “strawberries” for “roses”
# The diffuser was place in the middle of one box from 10 cm to the surface of strawberries. The two boxes were covered with a plastic bag to keep inside a homogeneous atmosphere. Boxes were kept in an acclimated chamber (20° C., darkness) until the symptoms of fungi degradation (approx. 7 days).
# Monilinia sp = assay: Vapor-agar contact method, colony diameter; assay type: cell-based
# Method: as §2
# Antifungal activity was determined by the vapor-agar contact method previously described by Sekiyama et al.. Fungi were cultured on potato dextrose agar (PDA) medium at 27° C. for a week. Fungal spores were then inoculated in the center of PDA plates which were aseptically placed in a chamber without lids.
# A controlled release diffuser as described in examples 1 and 2 was used. In this example 3 doses of β-cyclocitral (β-CC) were used: 20, 50 and 100 μL.
# The diffusers were introduced into the chambers, 6 cm far from the PDA plate, followed by proper sealing. Incubation in the chambers was performed at 27° C. for 3-5 days. The inhibitory activity was evaluated by measuring the diameter of colonies formed by the tested fungal strains. The minimum inhibitory dose (MID) was defined as the lowest concentration (mg/L in air) of volatile compounds which inhibited colony formation of test fungi by 50%.
smiles,measurement,setting,value
"CC1=C(C=O)C(C)(C)CCC1 [β-CC, beta-cyclocitral]",spots on roses,roses,less spots
same,cherries suitable for consumption,cherries,approximately 65%
same,% Inhibition,Monilinia sp.,78.22%
same,% Inhibition,Taphrina deformans,100%
same,Growth area,Taphrina deformans,0 cm^2
same,growth inhibition,Phytophtera nicotiana,100%
same,% Inhibition,Colletotrichum,99.00%
same,Growth area,Colletotrichum,6.15 cm^2
same,% Inhibition,"Rhizopus sp.; 27° C., 3-5 days",62.55%
same,Growth area,"Rhizopus sp.; 27° C., 3-5 days",1.45 cm^2
same,effect on spore germination (FIG. 3),Rhizopus sp.; versus control,inhibitory effect on the spore germination
same,rot / fungi contamination of strawberries,strawberries,less fungi contamination; also recorded: less rot
same,inhibition,Monilinia sp; concentrations higher than 50 μL,more than 60%
same,inhibition,Monilinia sp; concentrations of 100 μL,80-100%
same,doses that inhibit 50% of mycelium fungi (MID),"Monilinia sp; from linear model y=1.01X+4.2047, doses 20, 50 and 100 μL, 27° C., 3-5 days",45.34 µL
